# Experimental data reported in patent US6977263B2, “Chemical compounds” (Aventis Pharmaceuticals Inc., priority 2000, dated 2005).
# Where a name gives a salt, the structure may show the parent alone.
# Biological target: T1, recombinant human β tryptase (Homo sapiens, UniProt Q15661)
# T1 construct: made in house; host or cells: yeast cells
# Test: Tryptase chromogenic enzyme assay (S2366 substrate), Ki determination
# Type: biochemical
# Conditions: room temperature, 0.5 mM S2366 substrate (2×Km), read at 405 nm; Ki=IC50/(1+[Substrate]/Km)
# Protocol: Tryptase inhibition activity is confirmed using either isolated human lung tryptase or recombinant human β tryptase expressed in yeast cells. Essentially equivalent results are obtained using isolated native enzyme or the expressed enzyme. The assay procedure employs a 96 well microplate (Costar 3590) using L-pyroglutamyl-L-prolyl-L-arginine-para-nitroanilide (S2366: Quadratech) as substrate (essentially as described by McEuen et. al. Biochem Pharm, 1996, 52, pages 331-340). Assays are performed at room temperature using 0.5 mM substrate (2×Km) and the microplate is read on a microplate reader (Beckman Biomek Plate reader) at 405 nm wavelength. It was determined using the procedure set forth herein.
# Materials and Methods for Tryptase Primary Screen (Chromogenic Assay)
# S2366 (Stock solutions of 2.5 mM).
# Purified recombinant beta Tryptase Stocks of 310 ug/ml.
# • Add 60 ul of diluted substrate (final concentration of 500 uM in assay buffer) to each well • Add compound in duplicates, final concentration of 20 uM, volume 20 ul • Add enzyme at a final concentration of 50 ng/ml in a volume of 20 ul • Total volume for each well is 100 ul • Agitate briefly to mix and incubate at room temp in the dark for 30 minutes • Read absorbencies at […]
# Each plate has the following controls • Totals: 60 ul of substrate, 20 ul of buffer (with 0.2% final concentration of DMSO), 20 ul of enzyme • Non-specific: 60 ul of substrate, 40 ul of buffer (with 0.2% DMSO) • Totals: 60 ul of substrate, 20 ul of buffer (No DMSO), 20 ul of enzyme • Non-specific: 60 ul of substrate, 40 ul of buffer (No DMSO) Protocol (IC50 and Ki Determination)
# The protocol is essentially the same as above except that the compound is added in duplicates at the following final concentrations: 0.01, 0.03, 0.1, 0.3, 1, 3, 10 uM (All dilutions carried out manually). For every assay, whether single point or IC50 determination, a standard compound is used to derive IC50 for comparison. From the IC 50 value, the Ki can be calculated using the following formula: Ki=IC50/(1+[Substrate]/Km).
# T1 sequence (Q15661 31-275): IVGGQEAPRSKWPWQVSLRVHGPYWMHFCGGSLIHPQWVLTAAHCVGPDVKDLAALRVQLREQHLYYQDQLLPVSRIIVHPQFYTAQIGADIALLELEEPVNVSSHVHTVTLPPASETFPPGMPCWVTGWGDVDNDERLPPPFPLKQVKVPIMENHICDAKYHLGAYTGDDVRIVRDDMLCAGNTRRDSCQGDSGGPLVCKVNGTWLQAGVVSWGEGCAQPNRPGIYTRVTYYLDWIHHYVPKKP
row,SMILES,Ki [nM]
1,"NCc1cccc(C2CCN(C(=O)c3ccc(CCc4ccccc4)s3)CC2)c1 [Example 13, 3-[1-(5-Phenylethyl-thiophene-2-carbonyl)-piperidin-4-yl]-benzylamine hydrochloride]",50
2,"NCc1cccc(C2CCN(C(=O)c3cccc(COc4ccccc4)c3)CC2)c1 [Example 15, 3-[1-(3-Phenoxymethyl-benzoyl)-piperidin-4-yl]-benzylamine hydrochloride]",1070
3,"Cc1ccc(CN)cc1C1CCN(C(=O)c2cncc(CCc3ccccc3)c2)CC1 [Example 18, 4-Methyl-3-[1-(5-phenylethyl-pyridine-3-carbonyl)-piperidin-4-yl]-benzylamine di-hydrochloride]",69
4,"NCc1cccc(C2CCN(C(=O)c3cccc(-c4nnc(-c5ccccc5)o4)c3)CC2)c1 [Example 19, 3-{1-[3-(5-Phenyl-1,3,4-oxadiazol-2-yl)-phenylcarbonyl]-piperidin-4-yl}-benzylamine hydrochloride]",180
5,"N#CC1(c2cccc(CN)c2)CCN(C(=O)c2cncc(CCc3ccccc3)c2)CC1 [Example 35, 4-(3-Aminomethyl-phenyl)-1-(5-phenethyl-pyridine-3-carbonyl)-piperidine-4-carbonitrile]",93
6,"NCc1cccc(C2CCN(C(=O)c3ccc(Cl)c(Cl)c3)CC2)c1 [Example 36, [4-(3-Aminomethylphenyl)piperidin-1-yl]-(3,4-dichlorophenyl)methanone trifluoroacetate]",31
7,"NCc1cccc(C2CCN(C(=O)c3ccc(Cl)cc3)CC2)c1 [Example 48, 1-[4-(3-Aminomethyl-phenyl)-piperidin-1-yl]-1-(4-chloro-phenyl)-methanone trifluoroacetate]",390
8,"NCc1cccc(C2CCN(C(=O)c3cccc(-c4nnc(-c5ccccc5Cl)o4)c3)CC2)c1 [Example 49, 1-[4-(3-Aminomethyl-phenyl)-piperidin-1-yl]-1-{3-[5-(2-chloro-phenyl)-[1,3,4]oxadiazol-2-yl]-phenyl}-methanone trifluoroacetate]",390
9,"NCc1cccc(C2CCN(C(=O)c3scc4c3CCCC4)CC2)c1 [Example 70, 1-[4-(3-Aminomethyl-phenyl)-piperidin-1-yl]-1-(4,5,6,7-tetrahydro-benzo[c]thiophen-1-yl)-methanone-trifluoroacetate]",290
10,"NCc1cccc(C2CCN(C(=O)c3cccc(C#Cc4ccc(F)cc4)c3)CC2)c1 [Example 83, 1-[4-(3-Aminomethyl-phenyl)-piperidin-1-yl]-1-[3-(4-fluoro-phenylethynyl)-phenyl]-methanone trifluoroacetate]",870
11,"NCc1cccc(C2CCN(C(=O)c3cc4sc(Cl)cc4s3)CC2)c1 [Example 92, 1-[4-(3-Aminomethyl-phenyl)-piperidin-1-yl]-1-(5-chloro-thieno[3,2-b]thiophen-2-yl)-methanone trifluoroacetate]",190
12,"NCc1cccc(C2CCN(C(=O)c3ccc(CCc4ccccc4)cc3)CC2)c1 [Example 97, 1-[4-(3-Aminomethylphenyl)-piperidin-1-yl]-1-(4-phenylethyl-phenyl)-methanone hydrochloride]",450
13,"NCc1cccc(C2CCN(C(=O)c3cccc(CCc4ccccc4O)c3)CC2)c1 [Example 98, 1-[4-(3-Aminomethyl-phenyl)-piperidin-1-yl]-1-{3-[2-(2-hydroxy-phenyl)-ethyl]-phenyl}-methanone hydrochloride]",180
14,"NCc1cc(C2CCN(C(=O)c3cncc(CCc4ccccc4)c3)CC2)cs1 [Example 100, dihydrochloride]",490
